Active and inactive are the calls of the source. The rule behind the calls is not given here.
Legend:
Cavia porcellus [1] = experiment: Ventricular fibrillation (VF) in guinea pig tested for in vivo antiarrhythmic activity against ouabain induced cardiac arrhythmias at a dose of 20 mg/kg by po administration; type: functional, Heart
Rattus norvegicus [2] = experiment: Ventricular fibrillation (VF) in rats tested for in vivo Antiarrhythmic activity against aconitine induced arrhythmias at a dose of 25 mg/kg by po administration; type: functional, Heart
Rattus norvegicus [3] = experiment: Ventricular fibrillation (VF) in rats tested for in vivo Antiarrhythmic activity against aconitine induced arrhythmias at a dose of 10 mg/kg by iv administration; type: functional, Heart
Rattus norvegicus [4] = experiment: Appearance of ectopic beat (EA) in rats tested for in vivo Antiarrhythmic activity against aconitine induced arrhythmias at a dose of 10 mg/kg by iv administration; type: functional, Heart
Rattus norvegicus [5] = experiment: Ventricular tachycardia (VT) in rats tested for in vivo Antiarrhythmic activity against aconitine induced arrhythmias at a dose of 10 mg/kg by iv administration; type: functional, Heart
Rattus norvegicus [6] = experiment: Appearance of ectopic beat (EA) in rats tested for in vivo Antiarrhythmic activity against aconitine induced arrhythmias at a dose of 25 mg/kg by po administration; type: functional, Heart
Rattus norvegicus [7] = experiment: Ventricular tachycardia (VT) in rats tested for in vivo Antiarrhythmic activity against aconitine induced arrhythmias at a dose of 25 mg/kg by po administration; type: functional, Heart
Cavia porcellus [8] = experiment: Ventricular fibrillation (VF) in guinea pig tested for in vivo antiarrhythmic activity against ouabain induced cardiac arrhythmias at a dose of 10 mg/kg by iv administration; type: functional, Heart
Cavia porcellus [9] = species: Cavia porcellus; experiment: Antiarrhythmic effect expressed as percent reduction of the maximal rate of stimulation for antiarrhythmic activity in guinea pig auricle at 8 uM; type: functional, Heart
Rattus norvegicus [10] = experiment: Cardiac arrest(CA) in rats tested for in vivo Antiarrhythmic activity against aconitine induced arrhythmias at a dose of 10 mg/kg by iv administration; type: functional, Heart
Cavia porcellus [11] = experiment: Appearance of ectopic beat (EA) in guinea pig tested for in vivo antiarrhythmic activity against ouabain induced cardiac arrhythmias at a dose of 20 mg/kg by po administration; type: functional, Heart
Cavia porcellus [12] = experiment: Change in heart rate(HR) in guinea pig tested for in vivo antiarrhythmic activity against ouabain induced cardiac arrhythmias at a dose of 20 mg/kg by po administration; value ranges from 18-27%; type: functional
Cavia porcellus [13] = experiment: Cardiac arrest(CA) in guinea pig tested for in vivo antiarrhythmic activity against ouabain induced cardiac arrhythmias at a dose of 10 mg/kg by iv administration; type: functional, Heart
Rattus norvegicus [14] = experiment: Change in heart rate(HR) in rats tested for in vivo antiarrhythmic activity against aconitine induced arrhythmias at a dose of 10 mg/kg by iv administration; value ranges from 18-30%; type: functional
Rattus norvegicus [15] = experiment: Change in heart rate(HR) in rats tested for in vivo antiarrhythmic activity against aconitine induced arrhythmias at a dose of 25 mg/kg by po administration; value ranges from 11-17%; type: functional
Rattus norvegicus [16] = experiment: Cardiac arrest(CA) in rats tested for in vivo Antiarrhythmic activity against aconitine induced arrhythmias at a dose of 25 mg/kg by po administration; type: functional, Heart
Cavia porcellus [17] = experiment: Cardiac arrest(CA) in […] guinea pig tested for in vivo antiarrhythmic activity against ouabain induced cardiac arrhythmias at a dose of 20 mg/kg by po administration; type: functional, Heart
Cavia porcellus [18] = experiment: Appearance of ectopic beat (EA) in guinea pig tested for in vivo antiarrhythmic activity against ouabain induced cardiac arrhythmias at a dose of 10 mg/kg by iv administration; type: functional, Heart
Cavia porcellus [19] = experiment: Change in heart rate(HR) in guinea pig tested for in vivo antiarrhythmic activity against ouabain induced cardiac arrhythmias at a dose of 10 mg/kg by iv administration; value ranges from 17-18%; type: functional
[20] = Lipophilicity was determined; type: physicochemical; conditions: octanol/water
Cavia porcellus [21] = species: Cavia porcellus; experiment: Antiarrhythmic effect expressed as percent reduction of the maximal rate of stimulation for antiarrhythmic activity in guinea pig auricle at 8 uM; NS means not significant; type: functional; conditions: Heart
Cavia porcellus [22] = experiment: Change in heart rate(HR) in guinea pig tested for in vivo antiarrhythmic activity against ouabain induced cardiac arrhythmias at a dose of 10 mg/kg by iv administration; value ranges from 17-30%; type: functional
Rattus norvegicus [23] = experiment: Change in heart rate(HR) in rats tested for in vivo antiarrhythmic activity against aconitine induced arrhythmia at a dose of 10 mg/kg by iv administration; value ranges from 16-34; type: functional
Cavia porcellus [24] = experiment: Change in heart rate(HR) in guinea pig tested for in vivo antiarrhythmic activity against ouabain induced cardiac arrhythmias at a dose of 20 mg/kg by po administration; value ranges from 10-35%; type: functional
Rattus norvegicus [25] = experiment: Change in heart rate(HR) in rats tested for in vivo antiarrhythmic activity against aconitine induced arrhythmias at a dose of 25 mg/kg by po administration; value ranges from 16-34; type: functional

With `C=C[C@H]1CN2CC[C@H]1C[C@@H]2[C@@H](O)c1ccnc2ccc(OC)cc12.C=C[C@H]1CN2CC[C@H]1C[C@@H]2[C@@H](O)c1ccnc2ccc(OC)cc12.O.O.O=S(=O)(O)O` [QUINIDINE SULFATE] the “Amount of Ouabain used” value (Cavia porcellus [1]) was 201.34, the “Amount of Acotine used” value (Rattus norvegicus [2]) was 416.36 and the “Amount of Acotine used” value (Rattus norvegicus [3]) was 370. The “Amount of Acotine used” value (Rattus norvegicus [4]) was 156.24, the “Amount of Acotine used” value (Rattus norvegicus [5]) was 252.72 and the “Amount of Acotine used” value (Rattus norvegicus [6]) was 173.66. The “Amount of Acotine used” value (Rattus norvegicus [7]) was 237.02, the “Amount of Ouabain used” value (Cavia porcellus [8]) was 167.78 and the Inhibition (Cavia porcellus [9]) was 29.68%. For the same compound, the “Amount of Acotine used” value (Rattus norvegicus [10]) was 523.64, the “Amount of Ouabain used” value (Cavia porcellus [11]) was 138.99 and the “Change in heart rate” value (Cavia porcellus [12]) was 18%. For the same compound, the “Amount of Ouabain used” value (Cavia porcellus [13]) was 187.59, the “Change in heart rate” value (Rattus norvegicus [14]) was 18% and the “Change in heart rate” value (Rattus norvegicus [15]) was 11%. The “Amount of Acotine used” value (Rattus norvegicus [16]) was 581.06, the “Amount of Ouabain used” value (Cavia porcellus [17]) was 225.31 and the “Amount of Ouabain used” value (Cavia porcellus [18]) was 128.33. For the same compound, the “Change in heart rate” value (Cavia porcellus [19]) was 17%.
In the case of `CCCOC(=O)C1CCN(CCCC(=O)c2ccc(F)cc2)CC1`, the “Log P/(100-P)” value [20] was -0.954 and the Inhibition (Cavia porcellus [9]) was 10%.
For `COC(=O)C1CCN(CCCN2CCN(c3ccc(F)cc3)CC2)CC1`, the inhibition (Cavia porcellus [21]) was “inactive”.
With `COC(=O)C1CCN(CCCN2CCN(c3ccccc3)CC2)CC1` the “Log P/(100-P)” value [20] was -1.195 and the Inhibition (Cavia porcellus [9]) was 6%.
With `COC(=O)C1CCN(CCCN2CCN(c3ccccn3)CC2)CC1` the inhibition (Cavia porcellus [21]) was “inactive”.
For `COC(=O)C1CCN(CCCOc2cccc(NC(C)=O)c2)CC1`, the “Log P/(100-P)” value [20] was -1.123 and the Inhibition (Cavia porcellus [9]) was 7%.
For `COC(=O)C1CCN(CCCC(=O)c2ccc(F)cc2)CC1`, the “Amount of Ouabain used” value (Cavia porcellus [1]) was 153.65, the “Amount of Acotine used” value (Rattus norvegicus [2]) was 356.09 and the “Amount of Acotine used” value (Rattus norvegicus [3]) was 373.36. The “Change in heart rate” value (Cavia porcellus [22]) was 17%, the “Log P/(100-P)” value [20] was -0.493 and the “Amount of Acotine used” value (Rattus norvegicus [4]) was 132.79. The “Change in heart rate” value (Rattus norvegicus [23]) was 16%, the “Amount of Acotine used” value (Rattus norvegicus [5]) was 231.27 and the “Amount of Acotine used” value (Rattus norvegicus [6]) was 159.29. For the same compound, the “Change in heart rate” value (Cavia porcellus [24]) was 10%, the “Change in heart rate” value (Rattus norvegicus [25]) was 16% and the “Amount of Acotine used” value (Rattus norvegicus [7]) was 226.74. For the same compound, the “Amount of Ouabain used” value (Cavia porcellus [8]) was 138.04, the Inhibition (Cavia porcellus [9]) was 24.33% and the “Amount of Acotine used” value (Rattus norvegicus [10]) was 544.28. For the same compound, the “Amount of Ouabain used” value (Cavia porcellus [11]) was 124.56, the “Amount of Ouabain used” value (Cavia porcellus [13]) was 175.76 and the “Amount of Acotine used” value (Rattus norvegicus [16]) was 457.72. For the same compound, the “Amount of Ouabain used” value (Cavia porcellus [17]) was 187.05 and the “Amount of Ouabain used” value (Cavia porcellus [18]) was 101.35.
With `CC(C)OC(=O)C1CCN(CCCC(=O)c2ccc(F)cc2)CC1` the “Log P/(100-P)” value [20] was -0.865 and the Inhibition (Cavia porcellus [9]) was 12%.
For `CCOC(=O)C1CCN(CCCC(=O)c2ccc(F)cc2)CC1`, the “Log P/(100-P)” value [20] was -0.462 and the Inhibition (Cavia porcellus [9]) was 25.66%.
For `COC(=O)C1CCN(CCC(=O)N2CCN(c3ccc(F)cc3)CC2)CC1`, the “Log P/(100-P)” value [20] was -0.954 and the Inhibition (Cavia porcellus [9]) was 10%.
